The values below come from PubChem BioAssay AID248 (DTP/NCI, 2004).

Values joined by “and” are separate entries in the source; they are usually repeats but may differ in a detail not shown here. Identical values can stand only once. Inconclusive results and toxic doses are left out. Square brackets hold non-standard residues; d marks the D form. Peptide text beside a SMILES is read from it. * marks the point of attachment. ξ: configuration not given here. Cbz = O=C(OCc1ccccc1)*; ξV = CC(C)C(N)C(=O)O

For this assay, the system named is L1210 leukemia ip in BDF1 mice, survival T/C. Kind of assay: NCI In Vivo Anticancer Drug Screen. Data for tumor model L1210 Leukemia (intraperitoneal) in B6D2F1 (BDF1) mice. The conditions noted are these: endpoint: mean survival time, higher = longer survival. In a few lines: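 Ratio derived from survival: compound-dosed mice over vehicle-dosed mice, all bearing a transplantable tumor.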

Where [1] appears, read: dose: 100.0 mg/kg/injection, schedule: Q01DX001 (ip), vehicle: saline.
Where [2] appears, read: dose: 50.0 mg/kg/injection, schedule: Q01DX009 (ip), vehicle: Klucel (hydroxypropylcellulose) (HPC).
[3] abbreviates: dose: 100.0 mg/kg/injection, schedule: Q01DX009 (ip), vehicle: Klucel (hydroxypropylcellulose) (HPC).
The mark [4] stands for this setting: dose: 200.0 mg/kg/injection, schedule: Q01DX009 (ip), vehicle: Klucel (hydroxypropylcellulose) (HPC).
[5] abbreviates: dose: 100.0 mg/kg/injection, schedule: Q01DX009 (ip), vehicle: saline.
Where [6] appears, read: dose: 100.0 mg/kg/injection, schedule: Q04DX003 (ip), vehicle: saline.
[7] abbreviates: dose: 200.0 mg/kg/injection, schedule: Q01DX009 (ip), vehicle: saline.
Setting [8] is: dose: 200.0 mg/kg/injection, schedule: Q04DX003 (ip), vehicle: saline.
[9] abbreviates: dose: 150.0 mg/kg/injection, schedule: Q01DX001 (ip), vehicle: saline.
[10] abbreviates: dose: 50.0 mg/kg/injection, schedule: Q04DX003 (ip), vehicle: Klucel (hydroxypropylcellulose) (HPC).
Setting [11] is: dose: 100.0 mg/kg/injection, schedule: Q04DX003 (ip), vehicle: Klucel (hydroxypropylcellulose) (HPC).
Setting [12] is: dose: 200.0 mg/kg/injection, schedule: Q04DX003 (ip), vehicle: Klucel (hydroxypropylcellulose) (HPC).
The mark [13] stands for this setting: dose: 400.0 mg/kg/injection, schedule: Q04DX003 (ip), vehicle: Klucel (hydroxypropylcellulose) (HPC).

For the compound `O=C(OCC(OC(=O)c1ccccc1)C1OCC(OC(=O)c2ccccc2)C1OC(=O)c1ccccc1)c1ccccc1` (stereo unspecified), the T/C was 88 % of control (dose: 100.0 mg/kg/injection, schedule: Q04DX003 (ip), vehicle: saline with Tween-80); 88 % of control (dose: 200.0 mg/kg/injection, schedule: Q04DX003 (ip), vehicle: saline with Tween-80); 88 % of control (dose: 400.0 mg/kg/injection, schedule: Q04DX003 (ip), vehicle: saline with Tween-80).
As to `C(CC1CCNCC1)CC1CCNCC1` (tested in a mixture with another compound), the T/C under setting [1] is 94 % of control.
`CC(=O)Nc1cccc(Br)c1`: the T/C reads like this: under setting [2], 101 % of control; under setting [3], 106 % of control and 90 % of control; under setting [4], 95 % of control and 102 % of control.
Turning to `CCN(C)CCC(C=O)(c1cccc2ccccc12)C(C)C` (stereo unspecified), the T/C (dose: 100.0 mg/kg/injection, schedule: Q04DX002 (ip), vehicle: saline) was 100 % of control.
`Cc1nccc(=O)[nH]1`: the T/C was 99 % of control under setting [5]; 106 % of control under setting [6]; 99 % of control under setting [7]; 106 % of control under setting [8]; 92 % of control (dose: 400.0 mg/kg/injection, schedule: Q04DX003 (ip), vehicle: saline).
As for `CCC[CH2][Sn]1([CH2]CCC)[O]C(=O)C2C(C(=O)[O]1)C1(Cl)C(Cl)=C(Cl)C2(Cl)C1(Cl)Cl` (stereo unspecified), the T/C is, setting by setting: (dose: 44.0 mg/kg/injection, schedule: Q01DX001 (ip), vehicle: saline) 98 % of control; (dose: 45.0 mg/kg/injection, schedule: Q01DX001 (ip), vehicle: saline) 97 % of control; (dose: 67.0 mg/kg/injection, schedule: Q01DX001 (ip), vehicle: saline) 95 % of control and 101 % of control; under setting [1], 98 % of control and 103 % of control; under setting [9], 123 % of control.
On to `CCN(CCP(c1ccccc1)c1ccccc1)CCP(c1ccccc1)c1ccccc1`, for which the T/C is, setting by setting: (dose: 6.25 mg/kg/injection, schedule: Q01DX009 (ip), vehicle: Klucel (hydroxypropylcellulose) (HPC)) 120 % of control; (dose: 19.0 mg/kg/injection, schedule: Q01DX001 (ip), vehicle: other) 120 % of control; (dose: 25.0 mg/kg/injection, schedule: Q01DX009 (ip), vehicle: Klucel (hydroxypropylcellulose) (HPC)) 122 % of control; (dose: 25.0 mg/kg/injection, schedule: Q04DX003 (ip), vehicle: Klucel (hydroxypropylcellulose) (HPC)) 106 % of control; (dose: 38.0 mg/kg/injection, schedule: Q01DX001 (ip), vehicle: other) 112 % of control; under setting [2], 100 % of control and 117 % of control. In addition, the T/C was 116 % of control under setting [10], 111 % of control under setting [3] and 122 % of control under setting [11].
Take `O=[As]O`: the T/C is, setting by setting: (dose: 0.5 mg/kg/injection, schedule: Q01DX015 (ip), vehicle: carboxymethylcellulose (CMC)) 97 % of control; (dose: 1.0 mg/kg/injection, schedule: Q01DX015 (ip), vehicle: carboxymethylcellulose (CMC)) 93 % of control; (dose: 1.53 mg/kg/injection, schedule: Q01DX Z (ip), vehicle: carboxymethylcellulose (CMC)) 110 % of control; (dose: 2.0 mg/kg/injection, schedule: Q01DX015 (ip), vehicle: carboxymethylcellulose (CMC)) 97 % of control; (dose: 3.15 mg/kg/injection, schedule: Q01DX Z (ip), vehicle: carboxymethylcellulose (CMC)) 98 % of control; (dose: 4.0 mg/kg/injection, schedule: Q01DX015 (ip), vehicle: carboxymethylcellulose (CMC)) 97 % of control. Moreover, the T/C (dose: 5.0 mg/kg/injection, schedule: Q01DX015 (ip), vehicle: carboxymethylcellulose (CMC)) is 88 % of control; the T/C (dose: 6.3 mg/kg/injection, schedule: Q01DX Z (ip), vehicle: carboxymethylcellulose (CMC)) was 104 % of control; the T/C (dose: 10.0 mg/kg/injection, schedule: Q01DX015 (ip), vehicle: carboxymethylcellulose (CMC)) was 87 % of control; the T/C (dose: 12.6 mg/kg/injection, schedule: Q01DX Z (ip), vehicle: carboxymethylcellulose (CMC)) is 104 % of control.
As to `C=CCNC(=O)Oc1cccc(NC(=O)C(C)CCC)c1` (stereo unspecified), the T/C runs as follows: (dose: 100.0 mg/kg/injection, schedule: Q01DX009 (ip), vehicle: saline with Tween-80) 101 % of control; (dose: 200.0 mg/kg/injection, schedule: Q01DX009 (ip), vehicle: saline with Tween-80) 95 % of control; (dose: 400.0 mg/kg/injection, schedule: Q01DX009 (ip), vehicle: saline with Tween-80) 108 % of control.
In the case of `COC(=O)C(NC(=O)CNC(=O)CNC(=O)OCc1ccccc1)C(C)C` (stereo not drawn) (Cbz-Gly-Gly-[ξV]-OMe), the T/C was 96 % of control under setting [11], 99 % of control under setting [12] and 92 % of control under setting [13].
As for `CN(N=O)C(=O)NCCCNC(=O)N(C)N=O`, the T/C is 118 % of control (dose: 6.25 mg/kg/injection, schedule: Q01DX Z (ip), vehicle: carboxymethylcellulose (CMC)); 101 % of control (dose: 12.5 mg/kg/injection, schedule: Q01DX Z (ip), vehicle: carboxymethylcellulose (CMC)); 112 % of control (dose: 25.0 mg/kg/injection, schedule: Q01DX Z (ip), vehicle: carboxymethylcellulose (CMC)); 200 % of control (dose: 100.0 mg/kg/injection, schedule: Q01DX Z (ip), vehicle: carboxymethylcellulose (CMC)); 120 % of control (dose: 150.0 mg/kg/injection, schedule: Q01DX001 (ip), vehicle: carboxymethylcellulose (CMC)); 102 % of control under setting [9]. Besides, the T/C reads like this: (dose: 250.0 mg/kg/injection, schedule: Q01DX Z (ip), vehicle: carboxymethylcellulose (CMC)) 121 % of control; (dose: 300.0 mg/kg/injection, schedule: Q01DX001 (ip), vehicle: carboxymethylcellulose (CMC)) 123 % of control; (dose: 300.0 mg/kg/injection, schedule: Q01DX001 (ip), vehicle: saline) 112 % of control; (dose: 300.0 mg/kg/injection, schedule: Q01DX Z (ip), vehicle: carboxymethylcellulose (CMC)) 90 % of control; (dose: 600.0 mg/kg/injection, schedule: Q01DX001 (ip), vehicle: saline) 109 % of control.
In the case of `CC1(C)COC(Cc2ccccc2)=N1`, the T/C reads like this: (dose: 25.0 mg/kg/injection, schedule: Q01DX009 (ip), vehicle: saline) 98 % of control; (dose: 50.0 mg/kg/injection, schedule: Q01DX009 (ip), vehicle: saline) 104 % of control; (dose: 50.0 mg/kg/injection, schedule: Q04DX003 (ip), vehicle: saline) 96 % of control; under setting [5], 102 % of control; under setting [6], 94 % of control; under setting [7], 101 % of control. Under setting [8], the T/C was 91 % of control.
As for `Cc1c(C)c2c(C(N)=O)c3ccccc3nc2c2ccccc12`, the T/C is, setting by setting: under setting [10], 100 % of control; under setting [11], 100 % of control; under setting [12], 92 % of control; under setting [13], 97 % of control.
On to `CCN(C)CCC(CC=C(C)C)(C(N)=O)c1cccc2ccccc12` (stereo unspecified), for which the T/C (dose: 12.5 mg/kg/injection, schedule: Q04DX002 (ip), vehicle: saline) is 100 % of control and the T/C (dose: 25.0 mg/kg/injection, schedule: Q04DX002 (ip), vehicle: saline) was 87 % of control.
On to `S=C(N/N=C/c1ccccn1)NC1CC2C=CC1C2` (stereo unspecified), for which the T/C was 100 % of control under setting [3] and 95 % of control under setting [4].
On to `Cc1ccc(C(=O)C[n+]2cccc3ccccc32)c(C)c1`, for which the T/C (dose: 25.0 mg/kg/injection, schedule: Q04DX002 (ip), vehicle: saline with Tween-80) is 93 % of control.
Regarding `CCCCNC(=O)Nc1ccc(C)cc1`, the T/C reads like this: (dose: 100.0 mg/kg/injection, schedule: Q01DX001 (ip), vehicle: carboxymethylcellulose (CMC)) 100 % of control; (dose: 200.0 mg/kg/injection, schedule: Q01DX001 (ip), vehicle: carboxymethylcellulose (CMC)) 103 % of control; (dose: 400.0 mg/kg/injection, schedule: Q01DX001 (ip), vehicle: carboxymethylcellulose (CMC)) 97 % of control.
Turning to `NNC(=O)C(=O)NN`, the T/C (dose: 100.0 mg/kg/injection, schedule: Q04DX002 (ip), vehicle: Klucel (hydroxypropylcellulose) (HPC)) is 102 % of control; the T/C (dose: 200.0 mg/kg/injection, schedule: Q04DX002 (ip), vehicle: Klucel (hydroxypropylcellulose) (HPC)) is 98 % of control; the T/C (dose: 400.0 mg/kg/injection, schedule: Q04DX002 (ip), vehicle: Klucel (hydroxypropylcellulose) (HPC)) was 93 % of control.
